According to ChEMBL document CHEMBL1201862, “PubChem BioAssay data set” (2004):
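The compound was tested at five concentrations on cells cultured in 96-well plates, with a 48-hour exposure period. Here, GI50 denotes the concentration required for 50% inhibition of growth.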 Active and inactive are the calls of the source. No stated cut-off is given here; in the data, active = GI50 up to about 1.1 µM and inactive = higher.

Columns and labels:
Test in all cases: NCI-60 cell line screen, 48 h
SF-539 = tested on: SF-539
M14 = tested on: M14
NCI-H460 = tested on: NCI-H460
SK-OV-3 = tested on: SK-OV-3
RXF 631 = tested on: RXF 631
HOP-62 = tested on: HOP-62
SR = tested on: SR
OVCAR-4 = tested on: OVCAR-4
NCI-H23 = tested on: NCI-H23
SN12C = tested on: SN12C
K562 = tested on: K562
NCI-H226 = tested on: NCI-H226
DLD-1 = tested on: DLD-1
786-0 = tested on: 786-0
SK-MEL-28 = tested on: SK-MEL-28
HOP-92 = tested on: HOP-92
MOLT-4 = tested on: MOLT-4
DMS-273 = tested on: DMS-273
A498 = tested on: A498
IGROV-1 = tested on: IGROV-1
ACHN = tested on: ACHN
HCC 2998 = tested on: HCC 2998
SNB-75 = tested on: SNB-75
SNB-78 = tested on: SNB-78
LXFL 529 = tested on: LXFL 529
Malme-3M = tested on: Malme-3M
RPMI-8226 = tested on: RPMI-8226
HL-60 = tested on: HL-60
CCRF-CEM = tested on: CCRF-CEM
CAKI-1 = tested on: CAKI-1
M19-MEL = tested on: M19-MEL
UACC-62 = tested on: UACC-62
SF-268 = tested on: SF-268
NCI-H522 = tested on: NCI-H522
HCT-116 = tested on: HCT-116
COLO 205 = tested on: COLO 205
SK-MEL-2 = tested on: SK-MEL-2
SF-295 = tested on: SF-295
SNB-19 = tested on: SNB-19
KM-20L2 = tested on: KM-20L2
SK-MEL-5 = tested on: SK-MEL-5
UO-31 = tested on: UO-31
HOP-18 = tested on: HOP-18
OVCAR-8 = tested on: OVCAR-8
EKVX = tested on: EKVX
HT-29 = tested on: HT-29
HCT-15 = tested on: HCT-15
XF498 = tested on: XF498
DMS-114 = tested on: DMS-114
A549 = tested on: A549
RXF 393 = tested on: RXF 393
U-251 = tested on: U-251
UACC-257 = tested on: UACC-257
SW-620 = tested on: SW-620
OVCAR-5 = tested on: OVCAR-5
TK-10 = tested on: TK-10
KM12 = tested on: KM12
OVCAR-3 = tested on: OVCAR-3
LOX IMVI = tested on: LOX IMVI

COc1cc([C@@H]2Oc3cc4oc(-c5ccccc5)cc(=O)c4c(O)c3O[C@H]2OC)ccc1O
GI50 (SF-539): 15 µM (inactive) | GI50 (M14): 11 µM (inactive) | GI50 (NCI-H460): 4.48 µM (inactive) | GI50 (SK-OV-3): 17.8 µM (inactive) | GI50 (RXF 631): 17.8 µM (inactive) | GI50 (HOP-62): 13.2 µM (inactive) | GI50 (SR): 4.14 µM (inactive) | GI50 (OVCAR-4): 14.6 µM (inactive) | GI50 (NCI-H23): 10.8 µM (inactive) | GI50 (SN12C): 12.1 µM (inactive) | GI50 (K562): 5.71 µM (inactive) | GI50 (NCI-H226): 19.3 µM (inactive) | GI50 (DLD-1): 7.69 µM (inactive) | GI50 (786-0): 8.2 µM (inactive) | GI50 (SK-MEL-28): 4.69 µM (inactive) | GI50 (HOP-92): 23.6 µM (inactive) | GI50 (MOLT-4): 4.91 µM (inactive) | GI50 (DMS-273): 4.03 µM (inactive) | GI50 (A498): 14.3 µM (inactive) | GI50 (IGROV-1): 22.4 µM (inactive) | GI50 (ACHN): 11 µM (inactive) | GI50 (HCC 2998): 13.2 µM (inactive) | GI50 (SNB-75): 12.4 µM (inactive) | GI50 (SNB-78): 18.2 µM (inactive) | GI50 (LXFL 529): 11.1 µM (inactive) | GI50 (Malme-3M): 14.3 µM (inactive) | GI50 (RPMI-8226): 5.71 µM (inactive) | GI50 (HL-60): 2.85 µM (inactive) | GI50 (CCRF-CEM): 3.7 µM (inactive) | GI50 (CAKI-1): 19.4 µM (inactive) | GI50 (M19-MEL): 7.4 µM (inactive) | GI50 (UACC-62): 15 µM (inactive) | GI50 (SF-268): 6.03 µM (inactive) | GI50 (NCI-H522): 5.97 µM (inactive) | GI50 (HCT-116): 7.16 µM (inactive) | GI50 (COLO 205): 20.5 µM (inactive) | GI50 (SK-MEL-2): 14.8 µM (inactive)

CC(=O)C1CC2(c3ccccc3)C(=O)c3ccccc3N2O1 (configuration not stated)
GI50 (SF-295): > 100 µM (inactive) | GI50 (SF-539): > 100 µM (inactive) | GI50 (SNB-19): > 100 µM (inactive) | GI50 (M14): > 100 µM (inactive) | GI50 (KM-20L2): > 100 µM (inactive) | GI50 (SK-OV-3): > 100 µM (inactive) | GI50 (HOP-62): > 100 µM (inactive) | GI50 (SK-MEL-5): > 100 µM (inactive) | GI50 (UO-31): > 100 µM (inactive) | GI50 (SR): > 100 µM (inactive) | GI50 (HOP-18): > 100 µM (inactive) | GI50 (OVCAR-4): > 100 µM (inactive) | GI50 (NCI-H23): > 100 µM (inactive) | GI50 (SN12C): > 100 µM (inactive) | GI50 (OVCAR-8): > 100 µM (inactive) | GI50 (EKVX): > 100 µM (inactive) | GI50 (HT-29): > 100 µM (inactive) | GI50 (K562): > 100 µM (inactive) | GI50 (NCI-H226): > 100 µM (inactive) | GI50 (DLD-1): > 100 µM (inactive) | GI50 (786-0): > 100 µM (inactive) | GI50 (SK-MEL-28): > 100 µM (inactive) | GI50 (HCT-15): > 100 µM | GI50 (HOP-92): > 100 µM (inactive) | GI50 (XF498): > 100 µM (inactive) | GI50 (MOLT-4): > 100 µM (inactive) | GI50 (DMS-273): > 100 µM (inactive) | GI50 (DMS-114): > 100 µM (inactive) | GI50 (A498): > 100 µM (inactive) | GI50 (IGROV-1): > 100 µM (inactive) | GI50 (ACHN): > 100 µM (inactive) | GI50 (A549): > 100 µM (inactive) | GI50 (RXF 393): > 100 µM (inactive) | GI50 (HCC 2998): > 100 µM (inactive) | GI50 (SNB-75): > 100 µM (inactive) | GI50 (SNB-78): > 100 µM (inactive) | GI50 (LXFL 529): > 100 µM (inactive) | GI50 (Malme-3M): > 100 µM (inactive) | GI50 (RPMI-8226): > 100 µM (inactive) | GI50 (HL-60): > 100 µM (inactive) | GI50 (CCRF-CEM): > 100 µM (inactive) | GI50 (M19-MEL): > 100 µM (inactive) | GI50 (U-251): > 100 µM (inactive) | GI50 (UACC-257): > 100 µM (inactive) | GI50 (UACC-62): > 100 µM (inactive) | GI50 (SF-268): > 100 µM (inactive) | GI50 (NCI-H522): > 100 µM (inactive) | GI50 (HCT-116): > 100 µM (inactive) | GI50 (COLO 205): > 100 µM (inactive) | GI50 (SW-620): > 100 µM (inactive)

COc1ccc(Nc2nc(C#N)c(N)s2)cc1
GI50 (SF-295): 29.2 µM (inactive) | GI50 (SF-539): 36.2 µM (inactive) | GI50 (SNB-19): 49 µM (inactive) | GI50 (OVCAR-5): > 100 µM (inactive) | GI50 (M14): 81.5 µM (inactive) | GI50 (KM-20L2): 38.5 µM (inactive) | GI50 (NCI-H460): > 100 µM (inactive) | GI50 (SK-OV-3): 34 µM (inactive) | GI50 (RXF 631): 35.9 µM (inactive) | GI50 (HOP-62): 46.8 µM (inactive) | GI50 (UO-31): 40.8 µM (inactive) | GI50 (TK-10): 38.2 µM (inactive) | GI50 (OVCAR-4): 83.2 µM (inactive) | GI50 (NCI-H23): 22.5 µM (inactive) | GI50 (SN12C): 30.7 µM (inactive) | GI50 (OVCAR-8): 78.5 µM (inactive) | GI50 (KM12): 29.9 µM (inactive) | GI50 (HT-29): 46.8 µM (inactive) | GI50 (K562): 24.5 µM (inactive) | GI50 (NCI-H226): > 100 µM (inactive) | GI50 (DLD-1): 48.6 µM (inactive) | GI50 (786-0): 64 µM (inactive) | GI50 (SK-MEL-28): > 100 µM (inactive) | GI50 (HCT-15): 15.8 µM | GI50 (HOP-92): > 100 µM (inactive) | GI50 (XF498): 21.4 µM (inactive) | GI50 (MOLT-4): > 10 µM (inactive) | GI50 (DMS-273): 26.7 µM (inactive) | GI50 (IGROV-1): 76.6 µM (inactive) | GI50 (ACHN): 15.7 µM (inactive) | GI50 (A549): 27.2 µM (inactive) | GI50 (HCC 2998): > 10 µM (inactive) | GI50 (SNB-75): > 100 µM (inactive) | GI50 (SNB-78): > 100 µM (inactive) | GI50 (LXFL 529): 31.9 µM (inactive) | GI50 (Malme-3M): 91.2 µM (inactive) | GI50 (RPMI-8226): 18.8 µM (inactive) | GI50 (HL-60): 24.5 µM (inactive) | GI50 (CAKI-1): 24.6 µM (inactive) | GI50 (OVCAR-3): > 100 µM (inactive) | GI50 (U-251): 34.2 µM (inactive) | GI50 (LOX IMVI): 21.4 µM (inactive) | GI50 (UACC-257): 17.1 µM (inactive) | GI50 (UACC-62): 23.1 µM (inactive) | GI50 (SF-268): 19.9 µM (inactive) | GI50 (NCI-H522): 22.8 µM (inactive) | GI50 (HCT-116): 33 µM (inactive) | GI50 (COLO 205): 35.9 µM (inactive) | GI50 (SK-MEL-2): 33.4 µM (inactive) | GI50 (SW-620): 46.1 µM (inactive)
